# Patent US12440496B2, “Natriuretic peptide receptor a agonists useful for the treatment of cardiometabolic diseases, kidney disease and diabetes” (Merck Sharp & Dohme LLC, priority 2019, dated 2025)
# Counter-ions that a name gives are not always drawn.
# Molecular target: T1, hNPRA (Homo sapiens, UniProt P16066)
# T1 construct: expressed in transfected cells
# T1 sequence (P16066 33-1061): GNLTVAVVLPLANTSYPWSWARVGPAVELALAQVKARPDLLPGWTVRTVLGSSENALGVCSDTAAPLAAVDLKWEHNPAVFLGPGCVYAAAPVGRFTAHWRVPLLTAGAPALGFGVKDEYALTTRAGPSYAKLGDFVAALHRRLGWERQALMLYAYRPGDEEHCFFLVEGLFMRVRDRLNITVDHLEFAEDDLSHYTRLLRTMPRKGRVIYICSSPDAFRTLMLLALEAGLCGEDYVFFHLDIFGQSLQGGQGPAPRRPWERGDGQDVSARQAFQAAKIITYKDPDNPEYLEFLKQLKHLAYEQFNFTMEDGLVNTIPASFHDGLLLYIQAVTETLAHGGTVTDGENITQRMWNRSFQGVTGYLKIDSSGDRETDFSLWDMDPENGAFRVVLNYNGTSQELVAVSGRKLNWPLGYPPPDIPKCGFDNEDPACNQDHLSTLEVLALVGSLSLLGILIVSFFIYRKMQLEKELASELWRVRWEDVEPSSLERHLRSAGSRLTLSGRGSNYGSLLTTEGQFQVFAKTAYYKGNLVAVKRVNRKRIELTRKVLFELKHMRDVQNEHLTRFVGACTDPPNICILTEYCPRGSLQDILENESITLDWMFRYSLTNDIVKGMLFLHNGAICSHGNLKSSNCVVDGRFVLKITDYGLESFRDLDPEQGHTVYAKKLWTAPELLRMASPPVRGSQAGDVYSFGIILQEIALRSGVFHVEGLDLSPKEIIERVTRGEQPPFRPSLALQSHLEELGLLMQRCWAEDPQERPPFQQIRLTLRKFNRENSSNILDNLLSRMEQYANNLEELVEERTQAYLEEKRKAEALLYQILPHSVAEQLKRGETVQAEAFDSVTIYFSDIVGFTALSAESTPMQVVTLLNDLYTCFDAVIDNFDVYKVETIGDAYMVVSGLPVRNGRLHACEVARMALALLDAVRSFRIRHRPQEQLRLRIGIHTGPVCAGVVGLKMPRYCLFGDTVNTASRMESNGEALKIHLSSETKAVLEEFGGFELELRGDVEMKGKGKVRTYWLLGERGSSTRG
# Experiment: NPRA Functional Cell Assay (cGMP HTRF, NPRA HEK JumpIn stable cells)
# Assay type: cell-based
# Conditions: cGMP production, 1 hour at 37° C., 10-point dose response
# Description: NPRA Functional Cell Assay
# Assay Buffer components HEPES and Opti-MEM® I Reduced-Serum with Glutamine (no phenol red) were from Gibco/Invitrogen (Thermo Fisher Scientific, Waltham, MA USA). 3-Isobutyl-1-methylxanthine (IBMX) and 4-(3-Butoxy-4-methoxybenzyl) imidazolidin-2-one (RO20) were obtained from Sigma-Aldrich (St. Louis, MO, USA). DPBS (Dulbecco's phosphate-buffered saline) without Ca2+ and Mg2+ was purchased from GE Healthcare Bio-Sciences (Pittsburgh, PA, USA). 384 well white Optiplates were from Perkin Elmer (Atlantic Highlands, NJ, USA). Human ANP (Atrial Natriuretic Peptide) (1-28) was purchased from Sigma-Aldrich (Catalog #A1663) and rat ANP (1-28) from Bachem (Torrance, CA, USA) (Catalog #H2100). Human-BNP (Human-Brain Natriuretic Peptide) (1-32 AA) was purchased from American Peptide Company (Sunnyvale, CA, USA) (product No. 14-1-90). cGMP kits were purchased from Cisbio. The assay ready frozen (ARF) Human/rat/dog NPRA HEK JumpIn Stable frozen cells (low passage number 5-11) were prepared in-house.
# Test compounds were titrated in DMSO in a 10-point dose response in a separate step followed by a 100-fold dilution into the reaction. Positive response for each assay was determined using 10 nM rat-ANP peptide (rat cells) or 50 nM h-ANP peptide (human and dog cells).
# Cells were thawed, washed with DPBS and resuspended in assay buffer (Opti-MEM+Glutamine, phenol red free media, 10 mM HEPES, 100 uM IBMX and 100 uM RO20) that was warmed to 37° C. Cells were then transferred to microplates via a Microplate Combi dispenser at a density of 1500, 400 and 1200 cells/well for human, rat and dog cells respectively, followed by acoustic transfer (Echo) of compound.
# (§1) Compounds and cells were incubated at 37° C. with 5% CO2 for 1 hour, after which the cells were lysed and cGMP was captured using a CisBio cGMP HTRF assay kit. The TRF signal was measured with an Envision plate reader (emission set to 615 and 665 nm) after 1 hour incubation at ambient temperature. The TRF signal was converted to [cGMP] through the use of a cGMP calibration curve on each microplate. EC50's were generated from the resulting dose response curves by use of a 4 parameter logistic algorithm.
# Assay Buffer components HEPES and Opti-MEM® I Reduced-Serum with Glutamine (no phenol red) were from Gibco/Invitrogen. 3-Isobutyl-1-methylxanthine (IBMX) and 4-(3-Butoxy-4-methoxybenzyl) imidazolidin-2-one (RO20) were obtained from Sigma. DPBS (Dulbecco's phosphate-buffered saline) without Ca2+ and Mg2+ was purchased from GE Healthcare Bio-Sciences (Pittsburgh, PA, USA). 384 well white Optiplates were from Perkin Elmer (Atlantic Highlands, NJ, USA). Human ANP (1-28) was purchased from Sigma (A1663) and rat ANP (1-28) from Bachem (H2100). Human-BNP (1-32 AA) was purchased from American Peptide Company (Sunnyvale, CA, USA) (product No. 14-1-90). cGMP kits were purchased from Cisbio (Bedford, MA, USA). The assay ready frozen (ARF) Human/rat/dog NPRA HEK JumpIn Stable frozen cells (low passage number 5-11) were prepared in-house.
# as §1, with “Envision®” for “Envision”, “reader (Perkin Elmer)” for “reader”
# hNPRA EC50 (nM) were determined for the compounds of Example 1 through Example 273 and are reported in the Experimental section of this application.
row,SMILES,EC50 [nM]
1,"CN(C)S(=O)(=O)Nc1cccc([C@@H](CCN2CCC(O)CC2)NC(=O)c2nc3cc4c(nc3s2)CC[C@H](C(C)(C)C)C4)c1 (mixture of isomers) [Example 216, (7S)-7-tert-butyl-N-[rac-(1R)-1-[3-(dimethylsulfamoylamino)phenyl]-3-(4-hydroxypiperidin-1-ium-1-yl)propyl]-5,6,7,8-tetrahydrothiazolo[5,4-b]quinoline-2-carboxamide; formate]",1980
2,"CC(C)(C)[C@H]1CCc2nc3sc(C(=O)N[C@H](CCN4CCCCC4)c4ccc(-c5ccc(O)nc5)cc4)cc3cc2C1 (racemic) [Example 1, ammonium;5-[4-[rac-(1R)-3-(1-piperidyl)-1-[[rac-(6S)-6-tert-butyl-5,6,7,8-tetrahydrothieno[2,3-b]quinoline-2-carbonyl]amino]propyl]phenyl]yridine-2-olate]",233
3,"CC(C)(C)[C@H]1CCc2nc3sc(C(=O)N[C@H](CCN4CCCCC4)c4ccc(-c5cnc(=O)[nH]c5)cc4)cc3cc2C1 (racemic) [Example 2, rac-(6S)-6-tert-butyl-N-[rac-(1R)-1-[4-(2-oxo-1H-pyrimidin-5-yl)phenyl]-3-(1-piperidyl)propyl]-5,6,7,8-tetrahydrothieno[2,3-b]quinoline-2-carboxamide]",518
4,"CC(C)(C)[C@H]1CCc2nc3sc(C(=O)N[C@H](CCN4CCCCC4)c4ccc(-c5ccoc5)cc4)cc3cc2C1 (racemic) [Example 3, rac-(6S)-6-tert-butyl-N-[rac-(1R)-1-[4-(3-furyl)phenyl]-3-(1-piperidyl)propyl]-5,6,7,8-tetrahydrothieno[2,3-b]quinoline-2-carboxamide]",675
5,"Cn1nccc1-c1ccc([C@@H](CCN2CCCCC2)NC(=O)c2cc3cc4c(nc3s2)CC[C@H](C(C)(C)C)C4)cc1 (racemic) [Example 4, rac-(6S)-6-tert-butyl-N-[rac-(1R)-1-[4-(2-methylpyrazol-3-yl)phenyl]-3-(1-piperidyl)propyl]-5,6,7,8-tetrahydrothieno[2,3-b]quinoline-2-carboxamide]",753
6,"CC(C)(C)[C@H]1CCc2nc3sc(C(=O)N[C@H](CCN4CCCCC4)c4ccc(-c5cn[nH]c5)cc4)cc3cc2C1 (racemic) [Example 5, rac-(6S)-6-tert-butyl-N-[rac-(1R)-3-(1-piperidy])-1-[4-(1H-pyrazol-4-yl)phenyl]propyl]-5,6,7,8-tetrahydrothieno[2,3-b]quinoline-2-carboxamide]",777
7,"CC(C)(C)[C@H]1CCc2nc3sc(C(=O)N[C@H](CCN4CCCCC4)c4ccc(-c5csc(C(=O)O)c5)cc4)cc3cc2C1 (racemic) [Example 6, ammonium;4-[4-[rac-(1R)-3-(1-piperidyl)-1-[rac-(6S)-6-tert-butyl-5,6,7,8-tetrahydrothieno[2,3-b]quinoline-2-carbonyl]amino]propyl] phenyl]thiophene-2-carboxylate]",877
8,"CC(C)(C)[C@H]1CCc2nc3sc(C(=O)N[C@H](CCN4CCCCC4)c4ccc(-c5cncnc5)cc4)cc3cc2C1 (racemic) [Example 7, rac-(6S)-6-tert-butyl-N-[rac-(1R)-3-(1-piperidyl)-1-(4-pyrimidin-5-ylphenyl)propyl]-5,6,7,8-tetrahydrothieno[2,3-b]quinoline-2-carboxamide]",2000
9,"CC(C)(C)[C@H]1CCc2nc3sc(C(=O)N[C@H](CCN4CCC(O)CC4)c4cccc(NS(C)(=O)=O)c4)cc3cc2C1 (racemic) [Example 8, ammonium; methylsulfonyl-[3-[rac-(1R)-3-(4-hydroxy-1-piperidyl)-1-[rac-(6S)-6-tert-butyl-5,6,7,8-tetrahydrothieno[2,3-b]quinoline-2-carbonyl]amino]propyl]phenyl] azanide]",453
10,"CN(C)CC[C@@H](NC(=O)c1cc2cc3c(nc2s1)CC[C@H](C(C)(C)C)C3)c1cccc(NS(C)(=O)=O)c1 (racemic) [Example 9, ammonium; methylsulfonyl-[3-[rac-(1R)-3-(dimethylamino)-1-[rac-(6S)-6-tert-butyl-5,6,7,8-tetrahydrothieno[2,3-b]quinoline-2-carbonyl]amino]propyl]phenyl] azanide]",708
11,"CC(C)(C)[C@H]1CCc2nc3sc(C(=O)N[C@H](CCNC4CCOCC4)c4cccc(NS(C)(=O)=O)c4)cc3cc2C1 (racemic) [Example 10, ammonium; methylsulfonyl-[3-[rac-(1R)-1-[[rac-(6S)-6-tert-butyl-5,6,7,8-tetrahydrothieno[2,3-b]quinoline-2-carbonyl]amino]-3-(tetrahydro-pyran-4-ylamino)propyl]phenyl]azanide]",710
12,"CC(C)(C)[C@H]1CCc2nc3sc(C(=O)N[C@H](CCN4CCCCC4)c4cccc(NS(C)(=O)=O)c4)cc3cc2C1 (racemic) [Example 11, ammonium; methylsulfonyl-[3-[rac-(1R)-3-(1-piperidyl)-1-[rac-(6S)-6-tert-butyl-5,6,7,8-tetrahydrothieno[2,3-b]quinoline-2-carbonyl]amino]propyl]phenyl] azanide]",718
13,"CC(C)(C)[C@H]1CCc2nc3sc(C(=O)N[C@H](CCN4CCCC(O)C4)c4cccc(NS(C)(=O)=O)c4)cc3cc2C1 (mixture of isomers) [Example 12, ammonium; methylsulfonyl-[3-[rac-(1R)-3-(3-hydroxy-1-piperidyl)-1-[[rac-(6S)-6-tert-butyl-5,6,7,8-tetrahydrothieno[2,3-b]quinoline-2-carbonyl]amino]propyl]phenyl] azanide]",790
14,"CC(C)(C)[C@H]1CCc2nc3sc(C(=O)N[C@H](CCN4CCCC5(CC5)C4)c4cccc(NS(C)(=O)=O)c4)cc3cc2C1 (racemic) [Example 13, ammonium; methylsulfonyl-[3-[rac-(1R)-3-(5-azaspiro[2.5]octan-5-yl)-1-[[rac-(6S)-6-tert-butyl-5,6,7,8-tetrahydrothieno[2,3-b]quinoline-2-carbonyl]amino]propyl]phenyl] azanide]",809
